Reference: patent US11492594B2, “Method for producing engineered heart muscle (EHM)” (GEORG-AUGUST-UNIVERSITÄT GÖTTINGEN STIFTUNG ÖFFENTLICHEN …, priority 2013, dated 2022)

What was measured:
[1] = tested on: hEHM (human engineered heart muscle); experiment: Spontaneous contraction frequency of hEHM by light microscopy; assay type: cell-based; details: n=6
Procedure: (§1) The inventors analyzed force of contraction and twitch kinetics (contraction time: time from 50% to maximal contraction; relaxation time: time from maximal contraction to 50% relaxation) under isometric conditions as described before (Zimmermann et al. Circ Res 90: 223-230 (2002), incorporated herein by reference). Contraction frequency was assessed by light microcopy (unstimulated spontaneous contractions) immediately after removing EHMs from the incubator.

[2] = tested on: hEHM (human engineered heart muscle); experiment: Isometric force of contraction and twitch kinetics of hEHM; assay type: cell-based
Procedure: as §1

[3] = tested on: hEHM (human engineered heart muscle); experiment: hEHM formation and contractile force with varied matrix, basal medium and supplements; assay type: cell-based; details: for force-generation of hEHM: 10 ng/ml added to serum-free medium, hES2; for hEHM formation and function by matrix component: contractile force at 2 mmol/L extracellular calcium
Procedure: The inventors constructed hEHMs using a modified EHM-engineering protocol (Zimmermann et al. Circ Res 90: 223-230 (2002), incorporated herein by reference). Briefly, EHMs (reconstitution volume: 450 μl) were prepared by pipetting a mixture containing freshly dispersed ESC-derivatives (1×10^4-15×10^6 cells in Iscove-Medium with 20% fetal calf serum, 1% non-essential amino acids, 2 mmol/l glutamine, 100 μmol/l β-mercaptoethanol, 100 U/ml penicillin, and […]), pH-neutralized collagen type I from rat tails (0.4 mg/EHM), Matrigel™ (10% v/v; Becton Dickenson or tebu), and concentrated serum-containing culture medium (2× DMEM, 20% horse serum, 4% chick embryo extract, 200 U/ml penicillin, and […] streptomycin) in circular molds (inner/outer diameter: 2/4 mm; height: 5 mm) (Table 1). hEHM condensed quickly within the casting molds and were transferred onto static stretch devices (110% of slack length) (Zimmermann et al. Nat Med 12: 452-458 (2006), incorporated herein by reference) on culture day 3. Medium was changed every other day. hEHM culture under stretch was performed for 7 days.
A protocol with reduced xenogenic components (Matrix protocol, Table 1) was established to enable pre-GMP hEHM. Cells were reconstituted in a mixture of pH-neutralized bovine collagen (Devros Medical, 0.4 mg/EHM), concentrated serum-containing culture medium (2× DMEM, 40% fetal calf serum, 200 U/ml penicillin, and […] streptomycin) and cultured in Iscove-Medium with 20% fetal calf serum, 1% non-essential amino acids, 2 mmol/l glutamine, 0.3 mmol/l ascorbic acid, 100 μmol/l β-mercaptoethanol, 100 U/ml penicillin, and 100 μg/ml streptomycin.
To generate fully defined, serum-free EHM cells were reconstituted in a mixture of pH-neutralized bovine collagen (Devros Medical, 0.4 mg/EHM), concentrated serum-free medium medium (2× DMEM, 8% B27, 200 U/ml penicillin, and […] streptomycin) and cultured in Iscove-Medium with full 4% B27, 1% non-essential amino acids, 2 mmol/l glutamine, 0.3 mmol/l ascorbic acid, 20 ng/ml IGF-1, 10 ng/ml FGF2, 10 ng/ml VEGF, 5 ng/ml TGFb1 (culture day 0-3 only), and 100 U/ml penicillin, and 100 μg/ml streptomycin (Serum-free protocol, Table 1). B27 supplement contains vitamins (Biotin, DL Alpha Tocopherol, Acetate DL Alpha-Tocopherol, Vitamin A), proteins and enzymes (BSA, fatty acid free Fraction V, Catalase, Human Recombinant Insulin, Human Transferrin, Superoxide Dismutase), and other cell-supporting components (Corticosterone, D-Galactose, Ethanolamine, Glutathione (reduced), L-Carnitine, Linoleic Acid, Linolenic Acid, Progesterone, Putrescine, Sodium Selenite, and T3 (triodo-I-thyronine). Where indicated full B27 (Invitrogen, A1486701) was compared to B27 without antioxidants (Invitrogen, #10889038) and B27 without insulin (Invitrogen, #0050129SA). B27 supplement was replaced by a custom-made supplement consisting of Albumin, Transferrin, Ethanolamine, Sodium selenite, L-Carnitine HCl, Hydrocortisone, Fatty acid supplement, and Triiodo-L-thyronine (Table 2).
as §1

[4] = tested on: human embryoid body (EB) cultures; experiment: Flow cytometry-based screen of media and supplements in 3D human embryoid body (EB) cultures; details: for cell death (sub-G1 fraction): compared to serum free medium without the factor or to other media, growth factors at above EC50 concentrations; for cardiomyocyte actinin expression (CM maturation): mean actinin fluorescence per cardiomyocyte
Procedure: EBs cultured in different medium conditions were made into a single cell suspension as described above. Cells were fixed in 70% ice cold ethanol under constant mixing. The cells were stained for sarcomeric actinin (Sigma) to label cardiomyocytes and DAPI to analyze nuclear DNA content and to exclude cell doublets. Cells were run on a LSRII Cytometer (BD). At least 10,000 live cells were analyzed. The following parameters were then analyzed, (1) cell death (percentage of cells in the sub-G1 fraction), (2) cardiomyocyte and non-myocyte percentage (Actinin-positive and negative cells, respectively) (3) Cardiomyocte maturation (mean actinin fluorescence), (4) cardiomyocyte and (5) non-myocyte size (based on sideward scatter area, SSC-A).

[5] = compared to serum free medium without the factor

In the case of CC(C)Cn1c(=O)n(C)c(=O)c2[nH]cnc21 [IBMX, 3-isobutyl-1-methylxanthine], the spontaneous beating rate ([1]; IBMX 100 μmol/l in addition to isoprenaline) is reported as 1.6±0.1 Hz.

[Ca+2] [calcium] was tested, and the “maximal twitch mean force” value ([2]; at 2.4 mmol/l calcium, n=17) was 130±13 μN, the EC50 ([2]; increasing extracellular calcium, n=17) was 800 ± 40 µM and the “maximal force and isoprenaline response of hEHM in RPMI with added calcium” value ([3]; RPMI plus 0.8 mM CaCl (final free calcium 1.242 mmol/L) versus RPMI (0.424 mmol/L)) was “lead to measurable maximal force and better responsiveness to isoprenalin”.

CC(C)NCC(O)c1ccc(O)c(O)c1 (stereo not shown) [isoprenaline, reference compound] was tested, and the spontaneous beating frequency ([1]; incubation with isoprenaline, hEHM at 10 days, baseline 0.8±0.05 Hz at 37° C.) was 1.2±0.1 Hz, the relaxation time ([2]; 1 μmol/l isoprenaline at 0.4 mmol/l extracellular calcium, n=12) was 113 ± 2.3 ms and the “increase in force of contraction” value ([2]; 1 μmol/l isoprenaline at sub-EC50 extracellular calcium (0.4 mmol/l), n=12) was 47±12%.

For “FGF-2: peptide growth factor (Peprotech, AF-100-18B)”, the “force-generation of hEHM” value [3] was “able to enhance force-generation”, the non-myocyte growth [4, 5] was “supported non-myocyte growth” and the cardiomyocyte cell size ([4]; sideward scatter area) was “increased cardiomyocyte cell size”.

With “IGF-1: peptide growth factor (Peprotech, AF-100-11)” the “cell death (sub-G1 fraction)” value [4] was “appeared to protect from cell death”.

In the case of Neuregulin-1, the “cell death (sub-G1 fraction)” value [4] is reported as “caused substantial cell death”.

“TGFβ1: peptide growth factor (Peprotech, 100-21)” was tested, and the “formation of functional EHM” value ([3]; addition to serum-free medium from day 0 to 3 (5 ng/ml)) was “essential”, the “formation of functional EHM, prolonged treatment” value ([3]; prolonged treatment (culture day 0-10) versus day 0-3) was “did not yield an additional benefit” and the “cardiomyocyte actinin expression (CM maturation)” value [4] was “enhanced individual cardiomyocyte actinin expression”.

For VEGF, the “force-generation of hEHM” value [3] was “able to enhance force-generation” and the “cardiomyocyte actinin expression (CM maturation)” value [4] was “enhanced individual cardiomyocyte actinin expression”.

fibronectin was tested, and the “hEHM formation and function by matrix component” value [3] was “did not yield additional benefit”.

With laminin the “hEHM formation and function by matrix component” value [3] was “did not yield additional benefit”.

B1: PDGF-BB: peptide growth factor (protein, UniProt P01127 82-190, looked up)
Platelet-derived growth …: SLGSLTIAEPAMIAECKTRTEVFEISRRLIDRTNANFLVWPPCVEVQRCSGCCNNRNVQCRPTQVQLRPVQVRKIEIVRKKPIFKKATVTLEDHLACKCETVAAARPVT
In the case of B1, the “cell death (sub-G1 fraction)” value [4] is reported as “caused substantial cell death”.

B2: CT-1: peptide growth factor (Cardiotrophin-1) (protein, UniProt Q16619 1-201, looked up)
Cardiotrophin-1: MSRREGSLEDPQTDSSVSLLPHLEAKIRQTHSLAHLLTKYAEQLLQEYVQLQGDPFGLPSFSPPRLPVAGLSAPAPSHAGLPVHERLRLDAAALAALPPLLDAVCRRQAELNPRAPRLLRRLEDAARQARALGAAVEALLAALGAANRGPRAEPPAATASAASATGVFPAKVLGLRVCGLYREWLSRTEGDLGQLLPGGSA
In the case of B2, the “cell death (sub-G1 fraction)” value [4] is reported as “caused substantial cell death”.

B3: TGFβ2: peptide growth factor (protein, UniProt P61812 303-414, looked up)
Transforming growth factor …: ALDAAYCFRNVQDNCCLRPLYIDFKRDLGWKWIHEPKGYNANFCAGACPYLWSSDTQHSRVLSLYNTINPEASASPCCVSQDLEPLTILYYIGKTPKIEQLSNMIVKSCKCS
modifications: Transforming growth factor beta-2
For B3, the “overall effect in growth factor screen” value [4, 5] was “had no beneficial effect”.
